Measured values as given in the supplement of paper PMC10307832.

How the values were obtained:
Assay in all cases: relative viability (nuclei count vs DMSO), 5 days (fraction); higher = more cells survive
HCC-366 = system: HCC-366
Outline: (§1)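 For relative viability, nuclei counts in treated wells were divided by those in vehicle wells. Lung cancer cell lines had been pin-tool dosed in 1536-well plates the day after seeding and cultured for 5 days, then fixed and stained in one step (final 0.05% Triton X-100, 1% formaldehyde, 1 ug/ml Hoechst) and imaged at 4×. Doses were one drug alone or a fixed anchor-drug dose plus five library-drug doses (not always all listed) in √10 steps, and values are duplicate-plate medians.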

NCI-H441 = system: NCI-H441
Outline: as §1

NCI-H1651 = system: NCI-H1651
Outline: as §1

NCI-H1734 = system: NCI-H1734
Outline: as §1

NCI-H1755 = system: NCI-H1755
Outline: as §1

NCI-H596 = system: NCI-H596
Outline: as §1

PC-3 [JPC-3] = system: PC-3 [JPC-3]
Outline: as §1

NCI-H1563 = system: NCI-H1563
Outline: as §1

RERF-LC-KJ = system: RERF-LC-KJ
Outline: as §1

NCI-H2347 = system: NCI-H2347
Outline: as §1

EMC-BAC-2 = system: EMC-BAC-2
Outline: as §1

NCI-H1650 = system: NCI-H1650
Outline: as §1

NCI-H1437 = system: NCI-H1437
Outline: as §1

CAL-12T = system: CAL-12T
Outline: as §1

NCI-H727 = system: NCI-H727
Outline: as §1

ABC-1 = system: ABC-1
Outline: as §1

COR-L23 = system: COR-L23
Outline: as §1

NCI-H3122 = system: NCI-H3122
Outline: as §1

UMC-11 = system: UMC-11
Outline: as §1

LK-2 = system: LK-2
Outline: as §1

SK-LU-1 = system: SK-LU-1
Outline: as §1

HARA = system: HARA
Outline: as §1

HOP-62 = system: HOP-62
Outline: as §1

## CCNC(=O)c1noc(-c2cc(C(C)C)c(O)cc2O)c1-c1ccc(CN2CCOCC2)cc1 [Luminespib] + COc1cc2c(Oc3ccc(NC(=O)C4(C(=O)Nc5ccc(F)cc5)CC4)cc3F)ccnc2cc1OCCCN1CCOCC1 [Foretinib] (partner 0.25 µM)
HCC-366; first compound 0.002 µM
  relative viability: 0.925
HCC-366; first compound 0.006325 µM
  relative viability: 0.921
HCC-366; first compound 0.02 µM
  relative viability: 0.921
HCC-366; first compound 0.06325 µM
  relative viability: 0.887
HCC-366; first compound 0.2 µM
  relative viability: 0.199
NCI-H441; first compound 0.002 µM
  relative viability: 0.927
NCI-H441; first compound 0.006325 µM
  relative viability: 0.92
NCI-H441; first compound 0.02 µM
  relative viability: 1.51
NCI-H441; first compound 0.06325 µM
  relative viability: 0.196
NCI-H441; first compound 0.2 µM
  relative viability: 0.149
NCI-H1651; first compound 0.002 µM
  relative viability: 0.837
NCI-H1651; first compound 0.006325 µM
  relative viability: 0.718
NCI-H1651; first compound 0.02 µM
  relative viability: 0.826
NCI-H1651; first compound 0.06325 µM
  relative viability: 0.309
NCI-H1651; first compound 0.2 µM
  relative viability: 0.208
NCI-H1734; first compound 0.002 µM
  relative viability: 0.9
NCI-H1734; first compound 0.006325 µM
  relative viability: 0.915
NCI-H1734; first compound 0.02 µM
  relative viability: 0.697
NCI-H1734; first compound 0.06325 µM
  relative viability: 0.175
NCI-H1734; first compound 0.2 µM
  relative viability: 0.171
NCI-H1755; first compound 0.002 µM
  relative viability: 0.874
NCI-H1755; first compound 0.006325 µM
  relative viability: 0.946
NCI-H1755; first compound 0.02 µM
  relative viability: 0.948
NCI-H1755; first compound 0.06325 µM
  relative viability: 0.555
NCI-H1755; first compound 0.2 µM
  relative viability: 0.305
NCI-H596; first compound 0.002 µM
  relative viability: 0.868
NCI-H596; first compound 0.006325 µM
  relative viability: 0.78
NCI-H596; first compound 0.02 µM
  relative viability: 0.695
NCI-H596; first compound 0.06325 µM
  relative viability: 0.787
NCI-H596; first compound 0.2 µM
  relative viability: 0.783
PC-3 [JPC-3]; first compound 0.002 µM
  relative viability: 1.01
PC-3 [JPC-3]; first compound 0.006325 µM
  relative viability: 0.938
PC-3 [JPC-3]; first compound 0.02 µM
  relative viability: 1.18
PC-3 [JPC-3]; first compound 0.06325 µM
  relative viability: 0.728
PC-3 [JPC-3]; first compound 0.2 µM
  relative viability: 0.259
NCI-H1563; first compound 0.002 µM
  relative viability: 1.01
NCI-H1563; first compound 0.006325 µM
  relative viability: 0.831
NCI-H1563; first compound 0.02 µM
  relative viability: 0.875
NCI-H1563; first compound 0.06325 µM
  relative viability: 0.452
NCI-H1563; first compound 0.2 µM
  relative viability: 0.537
RERF-LC-KJ; first compound 0.002 µM
  relative viability: 0.875
RERF-LC-KJ; first compound 0.006325 µM
  relative viability: 0.832
RERF-LC-KJ; first compound 0.02 µM
  relative viability: 0.71
RERF-LC-KJ; first compound 0.06325 µM
  relative viability: 0.861
RERF-LC-KJ; first compound 0.2 µM
  relative viability: 0.445
NCI-H2347; first compound 0.002 µM
  relative viability: 0.987
NCI-H2347; first compound 0.006325 µM
  relative viability: 0.64
NCI-H2347; first compound 0.02 µM
  relative viability: 0.59
NCI-H2347; first compound 0.06325 µM
  relative viability: 0.922
NCI-H2347; first compound 0.2 µM
  relative viability: 0.376
EMC-BAC-2; first compound 0.002 µM
  relative viability: 1.03
EMC-BAC-2; first compound 0.006325 µM
  relative viability: 0.936
EMC-BAC-2; first compound 0.02 µM
  relative viability: 0.942
EMC-BAC-2; first compound 0.06325 µM
  relative viability: 0.915
EMC-BAC-2; first compound 0.2 µM
  relative viability: 0.56
NCI-H1650; first compound 0.002 µM
  relative viability: 1.26
NCI-H1650; first compound 0.006325 µM
  relative viability: 1.17
NCI-H1650; first compound 0.02 µM
  relative viability: 1.23
NCI-H1650; first compound 0.06325 µM
  relative viability: 0.158
NCI-H1650; first compound 0.2 µM
  relative viability: 0.164
NCI-H1437; first compound 0.002 µM
  relative viability: 1.3
NCI-H1437; first compound 0.006325 µM
  relative viability: 1.2
NCI-H1437; first compound 0.02 µM
  relative viability: 1.33
NCI-H1437; first compound 0.06325 µM
  relative viability: 1.24
NCI-H1437; first compound 0.2 µM
  relative viability: 0.526
CAL-12T; first compound 0.002 µM
  relative viability: 1.25
CAL-12T; first compound 0.006325 µM
  relative viability: 1.15
CAL-12T; first compound 0.02 µM
  relative viability: 0.824
CAL-12T; first compound 0.06325 µM
  relative viability: 0.127
CAL-12T; first compound 0.2 µM
  relative viability: 0.128
NCI-H727; first compound 0.002 µM
  relative viability: 1.04
NCI-H727; first compound 0.006325 µM
  relative viability: 0.834
NCI-H727; first compound 0.02 µM
  relative viability: 0.669
NCI-H727; first compound 0.06325 µM
  relative viability: 0.219
NCI-H727; first compound 0.2 µM
  relative viability: 0.332
ABC-1; first compound 0.002 µM
  relative viability: 1.08
ABC-1; first compound 0.006325 µM
  relative viability: 0.881
ABC-1; first compound 0.02 µM
  relative viability: 0.859
ABC-1; first compound 0.06325 µM
  relative viability: 0.583
ABC-1; first compound 0.2 µM
  relative viability: 0.206
COR-L23; first compound 0.002 µM
  relative viability: 1.06
COR-L23; first compound 0.006325 µM
  relative viability: 0.894
COR-L23; first compound 0.02 µM
  relative viability: 1.12
COR-L23; first compound 0.06325 µM
  relative viability: 0.124
COR-L23; first compound 0.2 µM
  relative viability: 0.105
NCI-H3122; first compound 0.002 µM
  relative viability: 1.07
NCI-H3122; first compound 0.006325 µM
  relative viability: 0.887
NCI-H3122; first compound 0.02 µM
  relative viability: 0.925
NCI-H3122; first compound 0.06325 µM
  relative viability: 0.0893
NCI-H3122; first compound 0.2 µM
  relative viability: 0.0769
UMC-11; first compound 0.002 µM
  relative viability: 1.14
UMC-11; first compound 0.006325 µM
  relative viability: 0.982
UMC-11; first compound 0.02 µM
  relative viability: 0.816
UMC-11; first compound 0.06325 µM
  relative viability: 0.561
UMC-11; first compound 0.2 µM
  relative viability: 0.169
LK-2; first compound 0.002 µM
  relative viability: 1.66
LK-2; first compound 0.006325 µM
  relative viability: 1.44
LK-2; first compound 0.02 µM
  relative viability: 0.604
LK-2; first compound 0.06325 µM
  relative viability: 0.858
LK-2; first compound 0.2 µM
  relative viability: 0.88
SK-LU-1; first compound 0.002 µM
  relative viability: 0.825
SK-LU-1; first compound 0.006325 µM
  relative viability: 0.559
SK-LU-1; first compound 0.02 µM
  relative viability: 0.392
SK-LU-1; first compound 0.06325 µM
  relative viability: 0.131
SK-LU-1; first compound 0.2 µM
  relative viability: 0.133
HARA; first compound 0.002 µM
  relative viability: 1.09
HARA; first compound 0.006325 µM
  relative viability: 0.728
HARA; first compound 0.02 µM
  relative viability: 1.08
HARA; first compound 0.06325 µM
  relative viability: 0.922
HARA; first compound 0.2 µM
  relative viability: 0.785
HOP-62; first compound 0.002 µM
  relative viability: 1.09
HOP-62; first compound 0.006325 µM
  relative viability: 1.11
HOP-62; first compound 0.02 µM
  relative viability: 1.17
HOP-62; first compound 0.06325 µM
  relative viability: 0.587
HOP-62; first compound 0.2 µM
  relative viability: 0.145
